Experiment in all cases: DTP human tumour cell line panel, 48 h
Experiment [1] relates to SNB-19.
Experiment [2] has as its system UO-31.
The test system of experiment [3] is A549.
Experiment [4] deals with K562.
The test system of experiment [5] is SW-620.
Experiment [6] deals with SK-MEL-5.
Experiment [7] concerns 786-0.
The subject of experiment [8] is NCI-H226.
Experiment [9] has as its system DU-145.
Experiment [10] relates to PC-3.
Experiment [11] concerns ACHN.
Experiment [12] deals with RXF 393.
Experiment [13] deals with A498.
Experiment [14] deals with Malme-3M.
Experiment [15] relates to SNB-75.
In experiment [16] the test system is OVCAR-4.
In experiment [17] the test system is HCT-15.
The subject of experiment [18] is U-251.
Experiment [19] relates to Hs-578T.
Experiment [20] concerns HCC 2998.

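Compound exposure: 48 hours, 5 concentrations, 96-well plates. The concentration for 50% growth inhibition is given as GI50.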 Activity calls are given as the source filed them. Rule as the data show it: active = GI50 up to about 1.1 µM and inactive = higher.

The record followed here is ChEMBL document CHEMBL1201862, “PubChem BioAssay data set” (2004).

As for `O=C(O)c1cc(/N=N/c2ccc([As](=O)(O)O)cc2)ccc1O`, the GI50 in [1], in [2], in experiment [3], in [4], in experiment [5] and in [6] was > 100 µM (inactive) each time. Besides, the GI50 in experiment [7], in [8], in experiment [9], in experiment [10], in experiment [11] and in experiment [12] was > 100 µM (inactive) in each case. Moreover, the GI50 was > 100 µM (inactive) in [13]; > 100 µM (inactive) in experiment [14]; > 100 µM (inactive) in experiment [15]; > 100 µM (inactive) in experiment [16]; > 100 µM in [17]; > 100 µM (inactive) in [18]. Also, the GI50 in [19] and in [20] was > 100 µM (inactive) each time.
`NC1=NN(c2ccccc2)C2(c3ccncc3C(=O)O)C1C(N)=NN2c1ccccc1` (stereo not given): the GI50 in [1], in experiment [2], in [3], in [4], in [5] and in experiment [6] was > 100 µM (inactive) in each case. Besides, the GI50 in experiment [7], in [8], in experiment [9], in experiment [10], in experiment [11] and in experiment [12] was > 100 µM (inactive) throughout. The GI50 was > 100 µM (inactive) in [13]; > 100 µM (inactive) in [14]; > 100 µM (inactive) in experiment [15]; > 100 µM (inactive) in experiment [16]; > 100 µM in [17]; > 100 µM (inactive) in experiment [18]. Also, the GI50 in experiment [19] and in experiment [20] was > 100 µM (inactive) each time.
`CC1=C(C#N)C2C(=C(N)Oc3ccccc32)C(N)=N1` (stereo not given): the GI50 was 21.8 µM (inactive) in [1]; 17.4 µM (inactive) in experiment [2]; 38.3 µM (inactive) in [3]; 29.7 µM (inactive) in experiment [4]; 32.9 µM (inactive) in experiment [5]; 23.7 µM (inactive) in experiment [6]. The GI50 was 20.4 µM (inactive) in experiment [7]; 12.2 µM (inactive) in experiment [8]; 21.1 µM (inactive) in [9]; 33.3 µM (inactive) in [10]; 27.7 µM (inactive) in experiment [11]; 22.7 µM (inactive) in experiment [12]. The GI50 in experiment [13] was 24 µM (inactive); in [14], 16 µM (inactive); in [15], 18.7 µM (inactive); in experiment [16], 32.8 µM (inactive); in experiment [17], 17.9 µM; in [18] it was 34 µM (inactive). Also, the GI50 in [19] was 26.1 µM (inactive); in experiment [20], 29.4 µM (inactive).
With `CCCCNc1nc(SC)nc2[nH]cnc12`, the GI50 is > 74 µM (inactive) in experiment [1]; > 100 µM (inactive) in experiment [2]; > 100 µM (inactive) in experiment [3]; > 100 µM (inactive) in experiment [4]; > 100 µM (inactive) in experiment [5]; > 100 µM (inactive) in experiment [6]. The GI50 in experiment [7] was > 100 µM (inactive); in experiment [8] it was > 100 µM (inactive); in experiment [9], > 100 µM (inactive); in experiment [10], > 100 µM (inactive); in [11], > 100 µM (inactive); in [12], > 88.5 µM (inactive). The GI50 in experiment [13] was 5.96 µM (inactive); in experiment [14] it was > 100 µM (inactive); in [15], 76.7 µM (inactive); in [16] it was > 100 µM (inactive); in experiment [17], > 100 µM; in experiment [18], > 100 µM (inactive). Moreover, the GI50 is 2.36 µM (inactive) in experiment [19] and > 100 µM (inactive) in experiment [20].
On to `Nc1ccc2c(SCc3ccc([N+](=O)[O-])cc3)c3ccccc3nc2c1`, for which the GI50 was 21.9 µM (inactive) in experiment [1]; 14 µM (inactive) in [2]; 21.6 µM (inactive) in experiment [3]; 3.54 µM (inactive) in [4]; 2.87 µM (inactive) in experiment [5]; 15.2 µM (inactive) in [6]. Also, the GI50 in [7] is 7.52 µM (inactive); in experiment [8], 18.7 µM (inactive); in [9], 13.4 µM (inactive); in experiment [10], 16 µM (inactive); in experiment [11], 5 µM (inactive); in experiment [12], 19.4 µM (inactive). Also, the GI50 in experiment [13] was 22.5 µM (inactive); in experiment [14], 13.5 µM (inactive); in experiment [15] it was 17.7 µM (inactive); in experiment [16], 14.1 µM (inactive); in experiment [17] it was 13.5 µM; in experiment [18] it was 18.2 µM (inactive). In addition, the GI50 in experiment [19] is 17.6 µM (inactive); in experiment [20] it was 21.5 µM (inactive).
On to `Oc1cc(-c2ccc(F)cc2)nc2ncc(Cl)cc12`, for which the GI50 in experiment [1] is 38 µM (inactive); in [2] it was > 85.9 µM (inactive); in experiment [3], 35.5 µM (inactive); in experiment [4], 4.21 µM (inactive); in experiment [5], 11.1 µM (inactive); in experiment [6] it was 6.93 µM (inactive). The GI50 is 32.7 µM (inactive) in experiment [7]; 3.03 µM (inactive) in experiment [8]; 21.4 µM (inactive) in experiment [9]; 20.2 µM (inactive) in [10]; > 73.1 µM (inactive) in experiment [11]; 17.2 µM (inactive) in experiment [12]. The GI50 is 17.4 µM (inactive) in [13]; 15.7 µM (inactive) in experiment [14]; 11.7 µM (inactive) in experiment [15]; > 77.3 µM (inactive) in experiment [16]; 4.62 µM in experiment [17]; 21.7 µM (inactive) in experiment [18]. Moreover, the GI50 was 19.9 µM (inactive) in experiment [19] and 58.6 µM (inactive) in experiment [20].
